Laboratory results: US20170050939A1, “SMALL MOLECULE INHIBITORS OF G PROTEIN COUPLED RECEPTOR 6 KINASE POLYPEPTIDES” (Mayo Foundation for Medical Education and Research, priority 2014, published 2017)

Biological target: T1, GRK6, recombinant full-length GST-tagged human protein (Homo sapiens, UniProt P43250)
T1 construct: GRK6, recombinant full-length GST-tagged human protein; GST
Test: GRK6 IC50 determination (8-point concentration-response)
Type: biochemical
Conditions: not given
Source text: Two hundred forty compounds were further characterized by determining IC50 values in a GRK6 assay. This screen has been previously described in WO 2013/063458, which is incorporated by reference in its entirety herein.

T1 sequence (P43250 whole entry): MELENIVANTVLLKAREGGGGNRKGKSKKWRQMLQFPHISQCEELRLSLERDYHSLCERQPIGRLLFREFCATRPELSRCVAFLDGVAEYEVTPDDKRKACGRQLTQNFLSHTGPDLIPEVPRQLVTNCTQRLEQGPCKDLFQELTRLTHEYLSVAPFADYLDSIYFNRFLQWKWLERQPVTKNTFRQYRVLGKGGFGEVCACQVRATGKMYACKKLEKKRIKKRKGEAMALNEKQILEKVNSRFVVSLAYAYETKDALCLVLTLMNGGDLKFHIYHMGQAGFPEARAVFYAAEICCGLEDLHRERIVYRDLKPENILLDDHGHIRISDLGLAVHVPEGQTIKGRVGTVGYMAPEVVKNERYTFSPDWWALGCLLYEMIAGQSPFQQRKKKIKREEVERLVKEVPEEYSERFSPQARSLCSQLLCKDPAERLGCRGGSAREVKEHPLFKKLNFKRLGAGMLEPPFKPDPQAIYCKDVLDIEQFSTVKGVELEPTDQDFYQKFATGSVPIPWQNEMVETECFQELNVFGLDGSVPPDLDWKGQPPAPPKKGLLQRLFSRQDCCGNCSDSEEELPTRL

Question: For `Cn1ccc2ccc(-c3cc(-c4nnc(SCC(=O)O)[nH]4)cc([N+](=O)[O-])c3)cc21` [Compound 1], which IC50 is on record?
Answer: 50 nM

Question: `O=C(O)CSc1nnc(-c2cc(-c3ccc(-c4ccn[nH]4)cc3)cc([N+](=O)[O-])c2)[nH]1` [Compound 2] was tested. Which IC50 did it give?
Answer: 58.8 nM

Question: Which IC50 does the source give for `Cn1ccc2cc(-c3cc(-c4nnc(SCC(=O)O)[nH]4)cc([N+](=O)[O-])c3)ccc21` [Compound 3] here?
Answer: 60 nM

Question: For `O=C(O)CSc1nnc(-c2cc(-c3ccc4[nH]cc(-c5ccccc5)c4c3)cc([N+](=O)[O-])c2)[nH]1` [Compound 4], which IC50 is on record?
Answer: 67.4 nM

Question: For `O=C(O)CSc1nnc(-c2cc(-c3ccc4[nH]ccc4c3)cc([N+](=O)[O-])c2)[nH]1` [Compound 5], which IC50 is on record?
Answer: 73.9 nM

Question: For `O=C(O)CSc1nnc(-c2cc(-c3ccc4ccccc4c3)cc([N+](=O)[O-])c2)[nH]1` [Compound 6], which IC50 is on record?
Answer: 78.4 nM

Question: Which IC50 does the source give for `O=C(O)CSc1nnc(-c2cc(-c3cccc(-c4cc[nH]n4)c3)cc([N+](=O)[O-])c2)[nH]1` [Compound 7] here?
Answer: 92.3 nM

Question: How did the IC50 turn out when `O=C(O)CSc1nnc(-c2cc(-c3cccc4[nH]ccc34)cc([N+](=O)[O-])c2)[nH]1` [Compound 8] was run?
Answer: 101 nM

Question: For `Cc1c(-c2ccc3c(ccn3C)c2)cc(-c2nnc(SCC(=O)O)[nH]2)cc1[N+](=O)[O-]` [Compound 9], which IC50 is on record?
Answer: 103 nM

Question: With `O=C(O)CSc1nnc(-c2cc(-c3cccc4[nH]ncc34)cc([N+](=O)[O-])c2)[nH]1` [Compound 10] as the compound, how does the IC50 read?
Answer: 114 nM

Question: Which IC50 does the source give for `CCn1ccc2cc(-c3cc(-c4nnc(SCC(=O)O)[nH]4)cc([N+](=O)[O-])c3)ccc21` [Compound 11] here?
Answer: 118 nM

Question: `O=C(O)CSc1nnc(-c2cc(-c3ccc4cc[nH]c4c3)cc([N+](=O)[O-])c2)[nH]1` [Compound 12] was tested. Which IC50 did it give?
Answer: 122 nM

Question: `O=C(O)CSc1nnc(-c2cc(-c3ccc4ccccc4c3)cc(-c3cnco3)c2)[nH]1` [Compound 13] was tested. Which IC50 did it give?
Answer: 122 nM

Question: For `COc1cc(Cl)cc(-c2cc(-c3nnc(SCC(=O)O)[nH]3)cc([N+](=O)[O-])c2)c1` [Compound 14], which IC50 is on record?
Answer: 136 nM

Question: With `O=C(O)CSc1nnc(-c2cc(-c3ccc4[nH]ncc4c3)cc([N+](=O)[O-])c2)[nH]1` [Compound 15] as the compound, how does the IC50 read?
Answer: 140 nM

Question: For `Cn1ccc2c(-c3cc(-c4nnc(SCC(=O)O)[nH]4)cc([N+](=O)[O-])c3)cccc21` [Compound 16], which IC50 is on record?
Answer: 140 nM

Question: `N#Cc1cc(-c2ccc3ccccc3c2)cc(-c2nnc(SCC(=O)O)[nH]2)c1` [Compound 17] was tested. Which IC50 did it give?
Answer: 168 nM

Question: `N#CCc1cc(-c2ccc3ccccc3c2)cc(-c2nnc(SCC(=O)O)[nH]2)c1` [Compound 18] was tested. Which IC50 did it give?
Answer: 178 nM

Question: Which IC50 does the source give for `O=C(O)CSc1nnc(-c2cc(-c3ccc4ncccc4c3)cc([N+](=O)[O-])c2)[nH]1` [Compound 19] here?
Answer: 180 nM

Question: Which IC50 does the source give for `O=C(O)CSc1nnc(-c2cc(-c3ccc4scnc4c3)cc([N+](=O)[O-])c2)[nH]1` [Compound 20] here?
Answer: 184 nM

Question: Which IC50 does the source give for `Cn1ncc2cc(-c3cc(-c4nnc(SCC(=O)O)[nH]4)cc([N+](=O)[O-])c3)ccc21` [Compound 21] here?
Answer: 184 nM

Question: `O=C(O)CSc1nnc(-c2cc(-c3ccc(O)cc3)cc([N+](=O)[O-])c2)[nH]1` [Compound 22] was tested. Which IC50 did it give?
Answer: 187 nM

Question: With `COc1ccc2cc(-c3cc(-c4nnc(SCC(=O)O)[nH]4)cc([N+](=O)[O-])c3)ccc2c1` [Compound 23] as the compound, how does the IC50 read?
Answer: 199 nM

Question: How did the IC50 turn out when `O=C(O)CSc1nnc(-c2cc(-c3cccc(O)c3)cc([N+](=O)[O-])c2)[nH]1` [Compound 24] was run?
Answer: 212 nM

Question: Which IC50 does the source give for `CCCn1ccc2cc(-c3cc(-c4nnc(SCC(=O)O)[nH]4)cc([N+](=O)[O-])c3)ccc21` [Compound 25] here?
Answer: 227 nM

Question: `O=C(O)CSc1nnc(-c2cc(-c3ccc4[nH]cnc4c3)cc([N+](=O)[O-])c2)[nH]1` [Compound 26] was tested. Which IC50 did it give?
Answer: 249 nM

Question: How did the IC50 turn out when `CC(=O)Nc1ccc(-c2cc(-c3nnc(SCC(=O)O)[nH]3)cc([N+](=O)[O-])c2)cc1` [Compound 27] was run?
Answer: 262 nM

Question: With `O=C(O)CSc1nnc(-c2cc(-c3ccc4ccccc4c3)cc(C3C=NN=C3)c2)[nH]1` [Compound 28] as the compound, how does the IC50 read?
Answer: 262 nM

Question: How did the IC50 turn out when `CN1CCOc2cc(-c3cc(-c4nnc(SCC(=O)O)[nH]4)cc([N+](=O)[O-])c3)ccc21` [Compound 29] was run?
Answer: 269 nM

Question: Which IC50 does the source give for `O=C(O)CSc1nnc(-c2cc(-c3ccc4c(c3)OCO4)cc([N+](=O)[O-])c2)[nH]1` [Compound 30] here?
Answer: 275 nM

Question: `O=C(O)CSc1nnc(-c2cc(-c3cccnc3)cc(-c3ccc4ccccc4c3)c2)[nH]1` [Compound 31] was tested. Which IC50 did it give?
Answer: 283 nM

Question: `CS(=O)(=O)Nc1cccc(-c2cc(-c3nnc(SCC(=O)O)[nH]3)cc([N+](=O)[O-])c2)c1` [Compound 32] was tested. Which IC50 did it give?
Answer: 300 nM

Question: For `O=C(O)CSc1nnc(-c2cc(-c3ccc4[nH]c(-c5ccccc5)cc4c3)cc([N+](=O)[O-])c2)[nH]1` [Compound 33, 2-((3-(3-nitro-5-(2-phenyl-1H-indol-5-yl)phenyl)-1H-1,2,4-triazol-5-yl)thio)acetic acid], which IC50 is on record?
Answer: 302 nM

Question: How did the IC50 turn out when `Cc1cncc(-c2cc(-c3ccc4ccccc4c3)cc(-c3nnc(SCC(=O)O)[nH]3)c2)c1` [Compound 34] was run?
Answer: 349 nM

Question: `CC(=O)Nc1cc(-c2ccc3ccccc3c2)cc(-c2nnc(SCC(=O)O)[nH]2)c1` [Compound 35] was tested. Which IC50 did it give?
Answer: 351 nM

Question: Which IC50 does the source give for `COc1ccncc1-c1cc(-c2ccc3ccccc3c2)cc(-c2nnc(SCC(=O)O)[nH]2)c1` [Compound 36] here?
Answer: 352 nM

Question: Which IC50 does the source give for `O=C(O)CSc1nnc(-c2cc(-c3cccc4cnccc34)cc([N+](=O)[O-])c2)[nH]1` [Compound 37] here?
Answer: 359 nM

Question: With `Cc1c(-c2cc(-c3ccc4ccccc4c3)cc(-c3nnc(SCC(=O)O)[nH]3)c2)cnn1C` [Compound 38] as the compound, how does the IC50 read?
Answer: 376 nM

Question: For `O=C(O)CSc1nc(-c2cc(Br)cc(-c3ccc4ccccc4c3)c2)n[nH]1` [Compound 40], which IC50 is on record?
Answer: 421 nM

Question: How did the IC50 turn out when `CC(=O)Nc1cccc(-c2cc(-c3nnc(SCC(=O)O)[nH]3)cc([N+](=O)[O-])c2)c1` [Compound 42] was run?
Answer: 431 nM

Question: With `Nc1cc(-c2ccc3ccccc3c2)cc(-c2nnc(SCC(=O)O)[nH]2)c1` [Compound 43] as the compound, how does the IC50 read?
Answer: 433 nM

Question: `Cc1ncc(-c2cc(-c3ccc4ccccc4c3)cc(-c3nnc(SCC(=O)O)[nH]3)c2)cn1` [Compound 44] was tested. Which IC50 did it give?
Answer: 437 nM

Question: `CNC(=O)c1ccc(-c2cc(-c3nnc(SCC(=O)O)[nH]3)cc([N+](=O)[O-])c2)cc1` [Compound 45] was tested. Which IC50 did it give?
Answer: 440 nM

Question: How did the IC50 turn out when `COc1cncc(-c2cc(-c3ccc4ccccc4c3)cc(-c3nnc(SCC(=O)O)[nH]3)c2)c1` [Compound 46] was run?
Answer: 461 nM

Question: How did the IC50 turn out when `CS(=O)(=O)Nc1ccc(-c2cc(-c3nnc(SCC(=O)O)[nH]3)cc([N+](=O)[O-])c2)cc1` [Compound 47] was run?
Answer: 473 nM

Question: For `Cn1c(-c2ccccc2)cc2cc(-c3cc(-c4nnc(SCC(=O)O)[nH]4)cc([N+](=O)[O-])c3)ccc21` [Compound 48], which IC50 is on record?
Answer: 499 nM

Question: `CNS(=O)(=O)c1cccc(-c2cc(-c3nnc(SCC(=O)O)[nH]3)cc([N+](=O)[O-])c2)c1` [Compound 49] was tested. Which IC50 did it give?
Answer: 507 nM

Question: `O=C(O)CSc1nnc(-c2cc(-c3ccc4nccnc4c3)cc([N+](=O)[O-])c2)[nH]1` [Compound 50] was tested. Which IC50 did it give?
Answer: 509 nM

Question: With `CN(C)c1ccc(-c2cc(-c3nnc(SCC(=O)O)[nH]3)cc([N+](=O)[O-])c2)cc1` [Compound 52] as the compound, how does the IC50 read?
Answer: 518 nM

Question: How did the IC50 turn out when `CN(C)c1cccc(-c2cc(-c3nnc(SCC(=O)O)[nH]3)cc([N+](=O)[O-])c2)c1` [Compound 53] was run?
Answer: 538 nM

Same assay, conditions: 20 nM GRK6, 12 μM ATP (Km), 1 μM Peptide 216, 7 h incubation

Question: With `O=C(O)CSc1nnc(-c2cccc(-c3ccc4ccccc4c3)c2)[nH]1` [Compound 39] as the compound, how does the IC50 read?
Answer: 417 nM

Question: Which IC50 does the source give for `COc1cc(Cl)cc(-c2cccc(-c3nnc(SCC(=O)O)[nH]3)c2)c1` [Compound 41] here?
Answer: 426 nM

Question: With `COc1ccc2cc(-c3cccc(-c4nnc(SCC(=O)O)[nH]4)c3)ccc2c1` [Compound 51] as the compound, how does the IC50 read?
Answer: 510 nM
